In brackets after ≈: the same amount, converted by molar mass.
Experiments:
Assay type in all cases: cell-based
[1] = system: methicillin-resistant S. aureus SA 3202; assay: MIC, microtitration broth method, MRSA1; settings: Staphylococcus aureus; 24 h, 37 °C, CaMH broth
From the text: (§1) Since there is a general decrease in immunity during the treatment of oncological patients, i.e., patients are more susceptible to infectious diseases, it is advantageous if anticancer agents show antimicrobial properties at the same time. Therefore, the effects of the compounds were also investigated against Gram-positive bacteria. For this purpose, the susceptible collection strains of aerobic Staphylococcus aureus ATCC 29213 and facultatively aerobic Enterococcus faecalis ATCC 29212 and resistant clinical isolates of methicillin-resistant S. aureus (MRSA) SA 3202, SA 630 carrying the mecA gene, and vancomycin-resistant isolates of E. faecalis (VRE) 342B, 368, and 725B carrying the vanA gene were selected. Thus, the selection of the studied bacterial strains was adopted following the CLSI ([…]) international reference methodologies.
(§2) The in vitro antibacterial activity of the synthesized compounds was evaluated against representatives of multidrug-resistant bacteria, […] clinical isolates of methicillin-resistant S. aureus: clinical isolates of human origin, MRSA SA 3202, and MRSA SA 630 (National Institute of Public Health, Prague, Czech Republic), carrying the mecA gene. These two clinical isolates were classified as vancomycin-susceptible (but with a higher MIC of vancomycin equal to 2 μg/mL (VA2-MRSA). Vancomycin- and methicillin-susceptible S. aureus ATCC 29213 and vancomycin-susceptible Enterococcus faecalis ATCC 29212, obtained from the American Type Culture Collection, were used as the reference and quality control strains. Three vanA gene-carrying vancomycin-resistant isolates of E. faecalis (VRE 342B, VRE 368, VRE 725B) (Department of Infectious Diseases and Microbiology, Faculty of Veterinary Medicine, University of Veterinary Sciences Brno, Czech Republic) were provided by Oravcova et al..
(§3) The minimum inhibitory concentrations (MICs) were evaluated by the microtitration broth method according to the CLSI, with some modifications. The compounds were dissolved in DMSO (Sigma, St. Louis, MO, USA) to obtain a concentration of […] and diluted in a microtitration plate in an appropriate medium, i.e., Cation-Adjusted Mueller–Hinton Broth (CaMH, Oxoid, Basingstoke, UK) for staphylococci, and Brain Heart Infusion Broth (BHI, Oxoid) for enterococci to reach the final concentration of 256–0.125 µg/mL. Microtiter plates were inoculated with test microorganisms so that the final concentration of bacterial cells was 10^5. Ampicillin, oxacillin, and ciprofloxacin (Sigma) were used as reference drugs. A drug-free control and a sterility control were included. The plates were incubated for 24 h at 37 °C for staphylococci and enterococci. […] The experiments were repeated three times.

[2] = system: A549 (human lung adenocarcinoma) cells; assay: WST-1 cell viability assay, A549; settings: Homo sapiens, A549; WST-1, 72 h exposure, ± SD, n = 6
Procedure: (§4) The synthesized compounds were tested using three cancer cell lines—human amelanotic melanoma (C-32), human breast adenocarcinoma (MDA-MB-231), and human lung adenocarcinoma (A549)—and, for comparison, normal human dermal fibroblasts (HFF-1). The WST-1 (water-soluble tetrazole salt) assay was used to evaluate the effect of the synthesized compounds on the viability of cultured cells.
(§5) Compounds were evaluated for their antiproliferative activity using three cultured cell lines: C-32 (human amelanotic melanoma, ATCC, Manassas, VA, USA), A549 (human lung adenocarcinoma, ATCC, Manassas, VA, USA), MDA-MB-231 (human breast adenocarcinoma derived from metastatic site: pleural effusion, ATCC, Manassas, VA, USA), together with HFF-1 (normal human dermal fibroblasts, ATCC, Manassas, VA, USA). The cultured cells were kept at 37 °C and 5% CO2.
(§6) Cells were seeded in 96-well plates at 5000/well in 100 μL of medium. After 24 h of incubation, the medium was replaced with a new one with the addition of the test substance. After 72 h, the following tests were performed: with crystal violet (determination of the number of adherent cells in the culture), the WST-1 test (determination of the relative number of living cells and their metabolic activity), and the LDH test (determination of the relative number of dead cells in cultures—cytotoxicity of the tested substance).
(§7) WST-1 test: The WST-1 test (Roche Diagnostics, Mannheim, Germany) allows one to determine the relative number of cells in cultures. Absorbance is directly proportional to the number of cells and their metabolic activity. The absorbance measurement is performed at λ = 450 nm (reference wave 600 nm).

[3] = system: methicillin-resistant S. aureus SA 630; assay: MIC, microtitration broth method, MRSA2; settings: Staphylococcus aureus; 24 h, 37 °C, CaMH broth
From the text: as §1, §2, §3

[4] = system: MDA-MB-231 (human breast adenocarcinoma) cells; assay: WST-1 cell viability assay, MDA-MB-231; settings: Homo sapiens, MDA-MB-231; WST-1, 72 h exposure, ± SD, n = 6
Procedure: as §4, §5, §6, §7

[5] = system: methicillin-resistant S. aureus SA 3202; assay: MBC, agar aliquot subculture method, MRSA1; settings: Staphylococcus aureus; 99.9% decrease in CFU, 24 h, 37 °C
From the text: (§8) The activities of the individual derivatives were expressed as minimum inhibitory concentrations (MICs) and minimum bactericidal concentrations (MBCs) and are shown in Table 3 together with the values of the antibiotics used as standards for comparison. […] MBC values of bactericidal compounds are indicated in bold in Table 3.
(§9) For the above-mentioned strains/isolates, the agar aliquot subculture method was used as a test for bactericidal agents. After the MIC value determination, the inoculum was transferred to CaMH (Oxoid) for staphylococci, and BHI (Oxoid) for enterococci medium using a multipoint inoculator. The plates were incubated in a thermostat at 37 °C for 24 h. The lowest concentration of test compound at which ≤5 colonies were obtained was then evaluated as MBC, corresponding to a 99.9% decrease in CFU relative to the original inoculum.

[6] = system: C-32 (human amelanotic melanoma) cells; assay: WST-1 cell viability assay, C-32; settings: Homo sapiens; WST-1, 72 h exposure, ± SD, n = 6
Procedure: as §4, §5, §6, §7

[7] = system: HFF-1 (normal human dermal fibroblasts); assay: WST-1 cell viability assay, normal HFF-1; settings: HFF-1, WST-1, 72 h exposure, ± SD, n = 6
Procedure: as §4, §5, §6, §7

[8] = system: methicillin-resistant S. aureus SA 630; assay: MBC, agar aliquot subculture method, MRSA2; settings: Staphylococcus aureus; 99.9% decrease in CFU, 24 h, 37 °C
From the text: as §8, §9

[9] = system: vancomycin-resistant E. faecalis VRE 725B; assay: MIC, microtitration broth method, VRE3; settings: Enterococcus faecalis, 24 h, 37 °C, BHI broth
From the text: as §1, §2, §3

[10] = system: vancomycin-resistant E. faecalis VRE 342B; assay: MIC, microtitration broth method, VRE1; settings: Enterococcus faecalis, 24 h, 37 °C, BHI broth
From the text: as §1, §2, §3

[11] = system: Staphylococcus aureus ATCC 29213; assay: MIC, microtitration broth method, SA; settings: ATCC29213, 24 h, 37 °C, CaMH broth
From the text: as §1, §2, §3

[12] = system: Staphylococcus aureus ATCC 29213; assay: MBC, agar aliquot subculture method, SA; settings: ATCC29213, 99.9% decrease in CFU, 24 h, 37 °C
From the text: as §8, §9

SMILES | MIC [1] [µM] | IC50 [2] [µM] | MIC [3] [µM] | IC50 [4] [µM] | IC50 [6] [µM] | MIC [9] [µM] | MIC [10] [µM] | MIC [11] [µM] | MBC [5] [µM] | IC50 [7] [µM] | MBC [8] [µM] | MBC [12] [µM]
C#CC(C)(C)NS(=O)(=O)c1ccc(O)c2ncccc12 [3b, 8-Hydroxy-N-(1,1-dimethylprop-2-yn-1-yl)quinoline-5-sulfonamide] | 55.2 (≈ 16 µg/mL) | 17.2 ± 1.5 | 110 (≈ 31.9 µg/mL) | 55.8 ± 1.9 | 22.1 ± 1.5 | 883 (≈ 256 µg/mL) | 883 (≈ 256 µg/mL) | 55.2 (≈ 16 µg/mL) | 110 (≈ 31.9 µg/mL) | > 100 | 110 (≈ 31.9 µg/mL) | 110 (≈ 31.9 µg/mL)
C#CCN(C)S(=O)(=O)c1ccc(O)c2ncccc12 [3c, 8-Hydroxy-N-methyl-N-(prop-2-yn-1-yl)quinoline-5-sulfonamide] | 29 (≈ 8.01 µg/mL) | 13.9 ± 0.6 | 29 (≈ 8.01 µg/mL) | 2.2 ± 0.1 | 9.8 ± 0.6 | 464 (≈ 128 µg/mL) | 464 (≈ 128 µg/mL) | 29 (≈ 8.01 µg/mL) | 29 (≈ 8.01 µg/mL) | > 100 | 29 (≈ 8.01 µg/mL) | 29 (≈ 8.01 µg/mL)

More lines, main results first:

MIC [1] [µM] | IC50 [2] [µM] | MIC [3] [µM] | IC50 [4] [µM] | IC50 [6] [µM] | MIC [9] [µM] | MIC [10] [µM] | MIC [11] [µM] | SMILES | MBC [5] [µM] | IC50 [7] [µM] | MBC [8] [µM] | MBC [12] [µM]
122 (≈ 32 µg/mL) | 23.1 ± 0.7 | 244 (≈ 64 µg/mL) | 23.3 ± 1.2 | 19.8 ± 1.1 | 977 (≈ 256 µg/mL) | 977 (≈ 256 µg/mL) | 122 (≈ 32 µg/mL) | C#CCNS(=O)(=O)c1ccc(O)c2ncccc12 [3a, 8-Hydroxy-N-(prop-2-yn-1-yl)quinoline-5-sulfonamide] | 122 (≈ 32 µg/mL) | > 100 | 244 (≈ 64 µg/mL) | 122 (≈ 32 µg/mL)
45.2 (≈ 16 µg/mL) | 12.9 ± 1.1 | 90.4 (≈ 32 µg/mL) | 45.3 ± 5.4 | 10.4 ± 0.5 | 362 (≈ 128 µg/mL) | 362 (≈ 128 µg/mL) | 45.2 (≈ 16 µg/mL) | C#CCOc1ccc(NS(=O)(=O)c2ccc(O)c3ncccc23)cc1 [3d, 8-Hydroxy-N-[4-(prop-2-yn-1-yloxy)phenyl]quinoline-5-sulfonamide] | 45.2 (≈ 16 µg/mL) | > 100 | 90.4 (≈ 32 µg/mL) | 45.2 (≈ 16 µg/mL)
45.2 (≈ 16 µg/mL) | 11.5 ± 0.7 | 90.4 (≈ 32 µg/mL) | 15.2 ± 0.8 | 8.6 ± 0.9 | 362 (≈ 128 µg/mL) | 362 (≈ 128 µg/mL) | 45.2 (≈ 16 µg/mL) | C#CCOc1cccc(NS(=O)(=O)c2ccc(O)c3ncccc23)c1 [3e, 8-Hydroxy-N-[3-(prop-2-yn-1-yloxy)phenyl]quinoline-5-sulfonamide] | 90.4 (≈ 32 µg/mL) | > 100 | 90.4 (≈ 32 µg/mL) | 45.2 (≈ 16 µg/mL)
45.2 (≈ 16 µg/mL) | 19.1 ± 0.8 | 90.4 (≈ 32 µg/mL) | 14.7 ± 1.2 | 29.6 ± 2.6 | 362 (≈ 128 µg/mL) | 362 (≈ 128 µg/mL) | 45.2 (≈ 16 µg/mL) | C#CCOc1ccccc1NS(=O)(=O)c1ccc(O)c2ncccc12 [3f, 8-Hydroxy-N-[2-(prop-2-yn-1-yloxy)phenyl]quinoline-5-sulfonamide] | 90.4 (≈ 32 µg/mL) | 28.1 ± 2.2 | 90.4 (≈ 32 µg/mL) | 45.2 (≈ 16 µg/mL)
